These results are taken from PMC4674796, “Only a minority of broad-range detoxification genes respond to a variety of phytotoxins in generalist Bemisia tabaci species” (Scientific Reports, 2015).

One test deals with T1, BtGST2 (Bemisia tabaci, UniProt A0A9P0F9D9).
T1 construct: gene BEMITA_LOCUS12014
T1 sequence (A0A9P0F9D9 1-204): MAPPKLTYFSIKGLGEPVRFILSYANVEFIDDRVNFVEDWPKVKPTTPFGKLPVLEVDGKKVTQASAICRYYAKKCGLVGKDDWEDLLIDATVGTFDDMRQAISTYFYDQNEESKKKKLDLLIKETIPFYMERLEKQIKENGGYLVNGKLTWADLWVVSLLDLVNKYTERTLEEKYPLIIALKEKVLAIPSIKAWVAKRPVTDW
Put plainly: inhibition of CDNB/GSH conjugation, absorbance at […] nm. Format: biochemical. Particulars: read-out: % inhibition at 0.5 mM.
Regarding `O=c1cc(-c2ccccc2)oc2ccccc12` [Flavone, 2-phenyl chromone], the inhibition (commonly the percentage by which the read-out fell short of the control) at 500 µM was determined as 67.3 ± 8.65%.

Take `OCc1c[nH]c2ccccc12` [I3C]: the inhibition at 500 µM amounted to 20.9 ± 7.99%.

For the molecule `O=c1c(O)c(-c2ccc(O)c(O)c2)oc2cc(O)cc(O)c12` [Quercetin hydrate], the inhibition at 500 µM came out at 97.6 ± 2.43%.

Turning to `CN1CCC[C@H]1c1cccnc1` [Nicotine], the inhibition at 500 µM stood at 6.64 ± 3.68%.

As to `C=CCN=C=S` [AITC], the inhibition at 500 µM was 40.9 ± 5.08%.

The target in a further test is T1, BtGST2. Put plainly: GSH/CDNB conjugation, absorbance at […] nm, Michaelis-Menten fit. Type of test: biochemical. Particulars: co-substrate GSH 2.75 mM, CDNB 0.06-3 mM; 0.1 M potassium phosphate pH 6.5, 25 °C.
Turning to `O=[N+]([O-])c1ccc(Cl)c([N+](=O)[O-])c1` [CDNB, 1-Chloro-2,4-dinitrobenzene], the Michaelis-Menten constant (Km) (usually the substrate concentration at which the rate is half of its maximum) is 710 ± 160 µM.
